Test results as given in patent US20090023773A1, “COMPOSITIONS AND METHODS FOR MODULATING GATED ION CHANNELS” (PainCeptor Pharma Corporation, priority 2007, published 2009).

Key:
[1] = molecular target: T1, hASIC2a/3 steady state (window) current (Homo sapiens, UniProt Q16515+Q9UHC3); assay: ASIC2a/3 assay, automated two-electrode voltage clamp in oocytes microinjected with hASIC2a and hASIC3 (Example 2); type: cell-based; details: 50 μM, perfusion at pH 6.5; FIG. 8
T1 construct: expressed in transfected cells; host or cells: Xenopus laevis oocytes, cRNA microinjection, 1:1 mass ratio
T1 sequence (Q16515 1-512): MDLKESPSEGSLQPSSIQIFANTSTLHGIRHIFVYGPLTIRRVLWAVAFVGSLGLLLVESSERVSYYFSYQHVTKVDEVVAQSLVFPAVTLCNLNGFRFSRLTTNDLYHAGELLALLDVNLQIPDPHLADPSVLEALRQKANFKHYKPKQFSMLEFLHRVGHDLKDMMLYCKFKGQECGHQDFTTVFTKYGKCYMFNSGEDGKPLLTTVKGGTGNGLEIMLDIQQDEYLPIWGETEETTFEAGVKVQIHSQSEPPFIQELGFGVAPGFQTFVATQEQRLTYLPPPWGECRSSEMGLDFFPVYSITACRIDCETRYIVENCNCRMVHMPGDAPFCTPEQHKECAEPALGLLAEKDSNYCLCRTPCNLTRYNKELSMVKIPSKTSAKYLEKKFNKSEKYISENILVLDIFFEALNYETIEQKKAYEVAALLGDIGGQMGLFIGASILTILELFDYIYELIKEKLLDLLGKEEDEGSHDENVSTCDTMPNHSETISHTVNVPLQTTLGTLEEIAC
T1 sequence (Q9UHC3 1-531): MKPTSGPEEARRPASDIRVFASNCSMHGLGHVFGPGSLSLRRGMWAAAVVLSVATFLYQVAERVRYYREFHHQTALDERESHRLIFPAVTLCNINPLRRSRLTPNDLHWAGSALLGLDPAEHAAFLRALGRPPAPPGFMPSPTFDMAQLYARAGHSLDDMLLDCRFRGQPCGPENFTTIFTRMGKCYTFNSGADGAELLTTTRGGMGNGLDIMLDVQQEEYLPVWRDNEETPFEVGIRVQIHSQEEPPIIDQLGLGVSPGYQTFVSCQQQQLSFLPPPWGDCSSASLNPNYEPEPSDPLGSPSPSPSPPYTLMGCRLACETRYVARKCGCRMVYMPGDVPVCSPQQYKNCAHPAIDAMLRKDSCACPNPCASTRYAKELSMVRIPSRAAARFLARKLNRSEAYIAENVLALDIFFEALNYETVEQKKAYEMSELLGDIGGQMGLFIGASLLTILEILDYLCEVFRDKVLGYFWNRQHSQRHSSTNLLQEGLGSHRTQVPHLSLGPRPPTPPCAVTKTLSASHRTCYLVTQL
Method: The ASIC2a/3 assay involves methods and procedures commonly in use and have been extensively described in the literature.
Briefly, a mature female frog is placed on its back after anesthesia, 20 min in 0.1% (w/v) Tricaine (Sigma), and incision is made on the lower abdomen through the skin, muscle and into the peritoneum. Lobes of ovaries are pulled out with forceps, cut and placed in a solution of Ca^2+-free Barth's with 1% (w/v) collagenase Type I (Sigma) added, for 90 minutes. The dissociated eggs are then washed with complete Barth's, supplementd with […] Gentamycin.
Plasmids containing cDNA for ASIC2a+ASIC3 are linearized and used for cRNA synthesis. The synthesis is done according to the protocol insert of the synthesis kit (e.g. Message Machine, Ambion). The final resuspension of the cRNA is made to provide a concentration of 1 μg/μL. The cDNA's for hASIC2a and hASIC3 are mixed with a 1:1 mass ratio and injected at […] per oocyte. Micro-injected oocytes start expressing hASIC2a3 specific current after 24 h.
The oocytes micro-injected with hASIC2a and hASIC3 cRNA's are placed in the recording chambers of the automated rig and then impaled with the voltage and current micro-electrodes. […] The voltage and current for each oocyte is recorded in one pass during both applications for later analysis. […]

[2] = system: chemically-induced spontaneous pain evoked by intraplantar injection of formalin; assay: Formalin test, model of acute tonic pain (Example 7); type: in vivo; details: rat; SC, 10 and 300 μmol/kg, 60 min prior to formalin; FIG. 9A
Method: Male Sprague-Dawley rats are housed together in groups of three animals under standard conditions with unrestricted access to food and water. All experiments are conducted according to the ethical guidelines for investigations of experimental pain in conscious animals (Zimmerman, 1983).
Assessment of formalin-induced flinching behavior in normal, uninjured rats (body weight 200-300 g) is made after formalin (2.5% in saline, 50-100 μl, s.c.) is injected into the plantar surface of the hindpaw using a 27 G needle. Rats are pretreated with test compounds either administered intravenously (IV), by subcutaneous injection (SC) or by orally (PO).
Nociceptive behavior is determined manually every 5 min by measuring the amount of time spent in each of four behavioral categories: 0, treatment of the injected hindpaw is indistinguishable from that of the contralateral paw; 1, the injected paw has little or no weight placed on it; 2, the injected paw is elevated and is not in contact with any surface; 3, the injected paw is licked, bitten, or shaken. A weighted nociceptive score, ranging from 0 to 3 is calculated by multiplying the time spent in each category by the category weight, summing these products, and dividing by the total time for each 5 min block of time. (Coderre et al., Pain 1993; 54: 43). On the basis of the resulting response patterns, […] of nociceptive behavior are identified and scored: first phase (P1; 0-5 min), interphase (Int; 6-15 min), second phase (P2; […]), phase 2A (P2A; 16-40 min) and phase 2B (P2B; 41-60 min).
Statistical analysis is performed using the Prism™ 4.01 software package (GraphPad, San Diego, Calif., USA). The difference in response levels between treatment groups and control vehicle group is analyzed using an ANOVA followed by Bonferroni's method for post-hoc pair-wise comparisons. A p value <0.05 is considered to be significant.

[3] = molecular target: T1, hASIC2a/3 steady state (window) current; details: supramaximal concentration; Babinski et al. (2000); cited from earlier work

| inhibition of the ASIC 2a/3 current [1] | Structure (SMILES) | pain intensity as evaluated by the licking behavior [2] | block of the ASIC2A/3 steady state current [3] |
| --- | --- | --- | --- |
| specific inhibition | O=C(O)c1ccc(Nc2nc(-c3ccc(Cl)cc3)nc3ccccc23)cc1 [Compound 111] | dose-dependent reduction |  |
|  | [Gd+3] [gadolinium (Gd^3+)] |  | completely block |
